“And” between values parts separate entries of the source, which are not always exact repeats. Identical values can stand only once.
Assays:
BTK = target: T1, BTK (Homo sapiens, UniProt Q06187); experiment: BTK kinase assay (HotSpot, 33P ATP); format: biochemical; details: for IC50: 10 dose IC50, 10 μM ATP; for BTK @ 0.1 μM (% Inh): 0.1 μM compound; for BTK @ 0.1 μM (% Inh) / BTK @ 1 μM (% Inh): 10 μM ATP; for BTK @ 1 μM (% Inh): 1 μM compound
T1 construct: purchased Reaction Biology Corporation
T1 sequence (Q06187 whole entry): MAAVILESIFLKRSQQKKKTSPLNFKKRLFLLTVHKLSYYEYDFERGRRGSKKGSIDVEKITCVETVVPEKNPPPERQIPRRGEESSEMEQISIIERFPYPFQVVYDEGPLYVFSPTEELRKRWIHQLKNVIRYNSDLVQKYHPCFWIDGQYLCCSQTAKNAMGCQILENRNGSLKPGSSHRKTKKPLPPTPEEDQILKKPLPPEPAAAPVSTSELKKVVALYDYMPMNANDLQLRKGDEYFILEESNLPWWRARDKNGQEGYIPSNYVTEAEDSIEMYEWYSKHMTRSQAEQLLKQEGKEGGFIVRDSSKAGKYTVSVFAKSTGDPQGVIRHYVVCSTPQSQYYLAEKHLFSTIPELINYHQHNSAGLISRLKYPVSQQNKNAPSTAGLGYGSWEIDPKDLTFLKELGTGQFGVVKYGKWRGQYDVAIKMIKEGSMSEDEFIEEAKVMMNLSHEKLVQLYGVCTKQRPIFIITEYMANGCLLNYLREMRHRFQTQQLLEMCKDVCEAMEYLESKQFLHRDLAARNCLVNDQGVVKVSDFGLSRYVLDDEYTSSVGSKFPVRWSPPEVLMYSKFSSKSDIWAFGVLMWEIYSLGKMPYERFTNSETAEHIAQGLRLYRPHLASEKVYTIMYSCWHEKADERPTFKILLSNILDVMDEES
Protocol: (§1) Compounds of the invention were profiled in a 10 dose IC50 panel against BTK and PI3Kδ, both provided by Reaction Biology Corporation.
BTK assay: In vitro profiling protein kinases was performed using the “HotSpot” assay platform. Briefly, specific kinase/substrate pairs along with required cofactors were prepared in reaction buffer. Compounds were prepared as 10 mM stock solutions in DMSO. Compounds were delivered into the reaction, followed 15-20 minutes later by addition of a mixture of ATP (Sigma, St. Louis Mo.) and ^33P ATP (Perkin Elmer, Waltham Mass.) to a final concentration of 10 μM. […] IC50 values and curve fits were obtained using Prism (GraphPad Software). Buffer Conditions: 20 mM Hepes (pH 7.5), 10 mM MgCl2, 1 mM EGTA, 0.02% Brij35, 0.02 mg/mL BSA, 0.1 mM Na3VO4, 2 mM DTT, 1% DMSO.

PI3Kδ = target: T2, PI3Kδ (Homo sapiens, UniProt O00329); experiment: PI3Kδ kinase assay (HTRF, PIP3 detection); format: biochemical; details: for IC50: 10 dose IC50, 10 μM ATP; for PI3Kδ @ 0.1 μM (% Inh): 0.1 μM compound; for PI3Kδ @ 0.1 μM (% Inh) / PI3Kδ @ 1 μM (% Inh): 10 μM ATP; for PI3Kδ @ 1 μM (% Inh): 1 μM compound
T2 construct: purchased Reaction Biology Corporation
T2 sequence (O00329 whole entry): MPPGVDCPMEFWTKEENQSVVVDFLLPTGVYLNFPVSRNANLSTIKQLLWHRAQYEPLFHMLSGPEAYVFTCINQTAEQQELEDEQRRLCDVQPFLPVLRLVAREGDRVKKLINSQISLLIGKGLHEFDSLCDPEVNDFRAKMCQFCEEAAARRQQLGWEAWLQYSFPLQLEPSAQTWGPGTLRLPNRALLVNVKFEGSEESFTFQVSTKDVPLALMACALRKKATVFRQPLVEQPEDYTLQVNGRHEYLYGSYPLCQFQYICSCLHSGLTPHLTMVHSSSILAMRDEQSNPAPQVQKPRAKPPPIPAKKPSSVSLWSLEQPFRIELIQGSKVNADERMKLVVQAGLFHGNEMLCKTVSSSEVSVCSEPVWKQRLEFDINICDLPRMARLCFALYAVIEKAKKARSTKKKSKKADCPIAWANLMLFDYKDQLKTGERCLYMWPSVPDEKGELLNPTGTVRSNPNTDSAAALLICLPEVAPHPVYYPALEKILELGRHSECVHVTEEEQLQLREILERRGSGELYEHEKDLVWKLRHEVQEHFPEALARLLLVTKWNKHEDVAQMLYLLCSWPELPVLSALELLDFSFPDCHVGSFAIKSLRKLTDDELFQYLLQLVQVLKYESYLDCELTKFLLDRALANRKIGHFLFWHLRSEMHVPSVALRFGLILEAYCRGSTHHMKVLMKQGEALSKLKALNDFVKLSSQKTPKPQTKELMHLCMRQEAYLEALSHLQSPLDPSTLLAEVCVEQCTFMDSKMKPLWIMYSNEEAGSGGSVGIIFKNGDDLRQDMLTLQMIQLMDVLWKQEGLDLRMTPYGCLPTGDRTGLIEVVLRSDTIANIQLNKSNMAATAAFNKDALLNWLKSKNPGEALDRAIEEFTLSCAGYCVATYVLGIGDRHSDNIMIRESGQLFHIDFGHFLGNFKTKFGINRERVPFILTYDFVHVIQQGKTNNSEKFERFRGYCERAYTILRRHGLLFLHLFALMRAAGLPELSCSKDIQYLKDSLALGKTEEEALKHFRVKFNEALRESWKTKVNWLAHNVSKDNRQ
T2 sequence (P27986 whole entry partner): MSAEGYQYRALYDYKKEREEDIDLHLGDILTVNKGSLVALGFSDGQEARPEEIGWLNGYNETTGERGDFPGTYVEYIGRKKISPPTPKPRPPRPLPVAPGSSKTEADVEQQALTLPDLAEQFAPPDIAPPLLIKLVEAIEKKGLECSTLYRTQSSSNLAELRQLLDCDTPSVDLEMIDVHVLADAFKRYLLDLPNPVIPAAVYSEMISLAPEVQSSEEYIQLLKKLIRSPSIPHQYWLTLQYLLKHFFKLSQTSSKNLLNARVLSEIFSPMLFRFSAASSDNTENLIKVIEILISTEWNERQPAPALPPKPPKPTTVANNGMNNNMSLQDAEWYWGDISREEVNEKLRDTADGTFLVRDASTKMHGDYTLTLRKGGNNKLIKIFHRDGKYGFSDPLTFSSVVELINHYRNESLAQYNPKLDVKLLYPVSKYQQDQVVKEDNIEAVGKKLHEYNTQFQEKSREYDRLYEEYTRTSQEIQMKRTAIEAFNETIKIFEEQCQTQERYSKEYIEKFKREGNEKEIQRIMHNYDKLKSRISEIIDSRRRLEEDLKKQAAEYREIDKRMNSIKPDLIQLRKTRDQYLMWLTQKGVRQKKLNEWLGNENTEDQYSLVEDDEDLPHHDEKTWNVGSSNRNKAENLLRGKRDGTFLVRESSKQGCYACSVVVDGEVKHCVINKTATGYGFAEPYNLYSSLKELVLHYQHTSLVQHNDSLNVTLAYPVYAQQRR
Text: as §1
PI3Kδ assay: The PIP3 product is detected by displacement of biotin-PIP3 from an energy transfer complex consisting of Europium labeled anti-GST monoclonal antibody, a GST-tagged pleckstrin homology (PH) domain, biotinylated PIP3 and Streptavidin-Allophycocyanin (APC). […] The PIP3 product formed by PI 3-Kinase(h) activity displaces biotin-PIP3 from the complex resulting in a loss of energy transfer and thus a decrease in signal. This is a 3-step reaction: First, the kinase reaction with PIP2 substrate is carried out in the presence of ATP (10 μM), and the reaction is quenched with stop Solution, and then finally detect by adding Detection Mixture followed by incubation (10 min). Reaction procedure: 1) Prepare substrate in freshly prepared Reaction Buffer. 2) Deliver kinase into the substrate solution and gently mix. 3) Deliver compounds in 100% DMSO (1 μM) into the kinase reaction mixture by Acoustic technology (Echo550; nanoliter range), incubate for 10 min at RT. 4) Deliver ATP into the reaction mixture to initiate the reaction. 5) Incubate for 30 min at 30° C. 6) Quench the reaction with Stop Solution. 7) Add Detection Mixture, and incubate for overnight. […] The emission ratio is converted into μM PIP3 production based on PIP3 standard curves. The nonlinear regression to obtain the standard curve and IC50 values are performed using Graphpad Prism software. Assay Buffer: HEPES 50 mM (pH7.0), NaN3 0.02%, BSA 0.01%, Orthovanadate 0.1 mM, 1% DMSO. Detection buffer: HEPES 10 mM (pH7.0), BSA 0.02%, KF 0.16 M, EDTA 4 mM. Substrate: 10 μM PIP2 substrate (PI(4,5)P2).

Structure (SMILES) | IC50 (BTK) [nM] | IC50 (PI3Kδ) [nM] | BTK @ 0.1 μM (% Inh) (BTK) | PI3Kδ @ 0.1 μM (% Inh) (PI3Kδ) | BTK @ 1 μM (% Inh) (BTK) | PI3Kδ @ 1 μM (% Inh) (PI3Kδ)
COc1ccc(-c2nn(C3CCc4ccccc4C3)c3ncnc(N)c23)cc1F (racemic) [Compound No. 14, 3-(3-fluoro-4-methoxyphenyl)-1-(1,2,3,4-tetrahydronaphthalen-2-yl)-1H-pyrazolo[3,4-d]pyrimidin-4-amine] | 217 | 7.9 | – | – | – | –
Nc1ncnc2c1c(-c1ccc3cn[nH]c3c1)nn2C1CCc2ccccc2C1 (racemic) [compound 9, 3-(1H-indazol-6-yl)-1-(1,2,3,4-tetrahydronaphthalen-2-yl)-1H-pyrazolo[3,4-d]pyrimidin-4-amine] | – | – | 15.85 % Inh | 44.86 % Inh | – | –
Nc1ncnc2c1c(-c1ccc(F)cc1)nn2C1CCc2ccccc2C1 (racemic) [compound 13, 3-(4-fluorophenyl)-1-(1,2,3,4-tetrahydronaphthalen-2-yl)-1H-pyrazolo[3,4-d]pyrimidin-4-amine] | 69.8 | 2390 | – | – | – | –
Nc1ncnc2c1c(-c1cnc3[nH]ccc3c1)nn2C1CCc2ccccc2C1 (racemic) [compound 16, 3-(1H-pyrrolo[2,3-b]pyridin-5-yl)-1-(1,2,3,4-tetrahydronaphthalen-2-yl)-1H-pyrazolo[3,4-d]pyrimidin-4-amine] | – | – | 24.0 % Inh | 51.94 % Inh | – | –
Nc1ncnc2c1c(-c1cn[nH]c1)nn2C1CCc2ccccc2C1 (racemic) [compound 20, 3-(1H-pyrazol-4-yl)-1-(1,2,3,4-tetrahydronaphthalen-2-yl)-1H-pyrazolo[3,4-d]pyrimidin-4-amine] | 2020 | 157 | – | – | – | –
Nc1ncnc2c1c(-c1ccc(O)cc1)nn2C1CCc2ccccc2C1 (racemic) [compound 21, 4-(4-amino-1-(1,2,3,4-tetrahydronaphthalen-2-yl)-1H-pyrazolo[3,4-d]pyrimidin-3-yl)phenol] | 192 | 104 | – | – | – | –
COc1ccc(-c2nn(C3CCc4ccccc4C3)c3ncnc(N)c23)cc1F (single isomer, unassigned) [Compound No. 14a, 3-(3-fluoro-4-methoxyphenyl)-1-(1,2,3,4-tetrahydronaphthalen-2-yl)-1H-pyrazolo[3,4-d]pyrimidin-4-amine] | 784 | 102 | – | – | – | –
Nc1ncnc2c1c(/C=C/CO)nn2C1Cc2ccccc2C1 (single isomer, unassigned) [Compound No. 64, (2E)-3-[4-amino-1-(2,3-dihydro-1H-inden-2-yl)-1H-pyrazolo[3,4-d]pyrimidin-3-yl]prop-2-en-1-ol] | – | – | 2.74 % Inh | 0.0 % Inh | 5.76 | 4.07
Nc1ncnc2c1c(CCCO)nn2C1Cc2ccccc2C1 (single isomer, unassigned) [Compound No. 65, 3-[4-amino-1-(2,3-dihydro-1H-inden-2-yl)-1H-pyrazolo[3,4-d]pyrimidin-3-yl]propan-1-ol] | – | – | 4.02 % Inh | −4.81 % Inh | 7.69 | 11.18
Nc1ncnc2c1c(-c1ccc(Br)c(O)c1)nn2C1CCc2ccccc21 (stereo not shown) [36b, 5-[4-amino-1-(2,3-dihydro-1H-inden-1-yl)-1H-pyrazolo[3,4-d]pyrimidin-3-yl]-2-bromophenol] | 123 | 155 | 33.82 % Inh | 40.07 % Inh | 76.93 | 79.26
COc1ccc(-c2nn(C3Cc4ccccc4C3)c3ncnc(N)c23)cc1OC [Compound No. 35, 1-(2,3-dihydro-1H-inden-2-yl)-3-(3,4-dimethoxyphenyl)-1H-pyrazolo[3,4-d]pyrimidin-4-amine] | – | – | 29.9 % Inh | – | – | –
Nc1ncnc2c1c(-c1ccc3cc[nH]c3c1)nn2C1Cc2ccccc2C1 [Compound No. 39, 1-(2,3-dihydro-1H-inden-2-yl)-3-(1H-indol-6-yl)-1H-pyrazolo[3,4-d]pyrimidin-4-amine] | – | – | 45.81 % Inh and 37.23 % Inh | 24.12 % Inh and 30.2 % Inh | 87.24 | 67.63
Nc1ncnc2c1c(-c1cccc(O)c1)nn2C1Cc2ccccc2C1 [Compound No. 40, 3-[4-amino-1-(2,3-dihydro-1H-inden-2-yl)-1H-pyrazolo[3,4-d]pyrimidin-3-yl]phenol] | – | – | 66.35 % Inh | 41.21 % Inh | – | –
Nc1ncnc2c1c(-c1ccc(C(F)(F)F)c(OCc3ccccc3)c1)nn2C1Cc2ccccc2C1 [Compound No. 43, 3-[3-(benzyloxy)-4-(trifluoromethyl)phenyl]-1-(2,3-dihydro-1H-inden-2-yl)-1H-pyrazolo[3,4-d]pyrimidin-4-amine] | – | – | 3.54 % Inh | 11.31 % Inh | −0.8 | 11.07
Nc1cccc(-c2nn(C3Cc4ccccc4C3)c3ncnc(N)c23)c1 [Compound No. 45, 3-(3-aminophenyl)-1-(2,3-dihydro-1H-inden-2-yl)-1H-pyrazolo[3,4-d]pyrimidin-4-amine] | – | – | 49.32 % Inh | 12.84 % Inh | 87.47 | 44.54
Cc1ccc(-c2nn(C3Cc4ccccc4C3)c3ncnc(N)c23)cc1N [Compound No. 46, 3-(3-amino-4-methylphenyl)-1-(2,3-dihydro-1H-inden-2-yl)-1H-pyrazolo[3,4-d]pyrimidin-4-amine] | 21.2 | 1290 | 85.71 % Inh | 30.55 % Inh | 96.3 | 67.34
Nc1ncnc2c1c(-c1ccc3[nH]cnc3c1)nn2C1Cc2ccccc2C1 [Compound No. 47, 3-(1H-1,3-benzodiazol-5-yl)-1-(2,3-dihydro-1H-inden-2-yl)-1H-pyrazolo[3,4-d]pyrimidin-4-amine] | – | – | 9.61 % Inh | 78.41 % Inh | 48.47 | 100.0
Nc1ncnc2c1c(N1CCOCC1)nn2C1Cc2ccccc2C1 [Compound No. 48, 1-(2,3-dihydro-1H-inden-2-yl)-3-(morpholin-4-yl)-1H-pyrazolo[3,4-d]pyrimidin-4-amine] | – | – | 1.56 % Inh | 7.12 % Inh | 16.21 | 11.95
COc1cc(-c2nn(C3Cc4ccccc4C3)c3ncnc(N)c23)ccn1 [Compound No. 50, 1-(2,3-dihydro-1H-inden-2-yl)-3-(2-methoxypyridin-4-yl)-1H-pyrazolo[3,4-d]pyrimidin-4-amine] | 1260 | 362 | 21.32 % Inh | 39.05 % Inh | 66.77 | 79.98
Nc1ncnc2c1c(-c1ccnc(O)c1)nn2C1Cc2ccccc2C1 [Compound No. 52, 4-[4-amino-1-(2,3-dihydro-1H-inden-2-yl)-1H-pyrazolo[3,4-d]pyrimidin-3-yl]pyridin-2-ol] | – | – | 9.25 % Inh | 6.493 % Inh | 24.21 | 37.25
Nc1ncnc2c1c(-c1ccccc1CO)nn2C1Cc2ccccc2C1 [Compound No. 53, {2-[4-amino-1-(2,3-dihydro-1H-inden-2-yl)-1H-pyrazolo[3,4-d]pyrimidin-3-yl]phenyl}methanol] | 575 | 645 | 30.42 % Inh | 30.15 % Inh | 76.1 | 81.32
Nc1ncnc2c1c(-c1cccc(CO)c1)nn2C1Cc2ccccc2C1 [Compound No. 54, {3-[4-amino-1-(2,3-dihydro-1H-inden-2-yl)-1H-pyrazolo[3,4-d]pyrimidin-3-yl]phenyl}methanol] | 840 | 924 | 27.64 % Inh | 22.41 % Inh | 72.19 | 72.03
